According to article PMC10814725, “In Vitro Anti-Inflammatory Study of Limonoids Isolated from Chisocheton Plants” (Current Issues in Molecular Biology, 2024):
Where two headings read alike, the source gives them in different places.

Legend:
[1] = tested on: TNF-α, IL-6, IL-1β, and MCP-1; experiment: ELISA of pro-inflammatory markers overall (TNF-α, IL-6, IL-1β, MCP-1) in LPS-stimulated THP-1 cells; assay type: cell-based; details: Homo sapiens, read-out: Overall IC50 values for the evaluated pro-inflammatory markers
Procedure: The logarithmic growth phase of THP-1 cells was achieved by seeding in 96-well plates at a density of 5 × 10^4 cells/well and differentiated for 24 h in the presence of PMA (0.5 μM solution in medium). After 24 h of incubation, the culture medium was removed from the 96-well plate and the cells were washed with PBS. Fresh RPMI-1640 medium supplemented with 0.1% FBS and 1% Penicillin–Streptomycin was added to each well and incubated at 37 °C overnight. The cells were pretreated with 17 limonoids at the corresponding concentration for 1 h, followed by the addition of LPS (10 ng/mL) and then incubation at 37 °C for 18 h. Finally, 50 μL of each culture supernatant solution was taken to determine the concentrations of IL-6, MCP-1, and IL-1β using the corresponding commercially available human ELISA kits following the manufacturer’s instructions. The analyte concentration in the supernatant was measured in pg/mL, and the inhibition level was expressed as a fold change compared to the LPS (−) control group. To determine the IC50 value, the dose-response data were normalized to the LPS-stimulated-only group, and the percentage of inhibition was calculated using the following formula: % Inhibition=(Absorbance of LPS+ control−Absorbance of compound treatment with LPS)/(Absorbance of LPS+ control−Absorbance of LPS− control)×100
Furthermore, the % inhibition data were interpolated into linear equations to determine the IC50 values.

[2] = tested on: NF-κB activation in HEK-Blue hTLR4 cells; experiment: SEAP reporter gene assay, agonist effect on NF-κB activation (without LPS); assay type: cell-based, human; details: 20 µM, compared to LPS (−)-treated cells
Procedure: (§1) The SEAP Reporter Gene Assay was conducted as previously described. HEK-Blue^TM hTLR4 cells (2 × 10^4 cells/well) were seeded in 96-well plates and were serum-starved for 24 h at 37 °C in a 5% carbon dioxide atmosphere. After incubation, the culture medium was aspirated, and the cells were washed with saline. High-glucose D-MEM supplemented with 0.1% FBS and 1% penicillin-streptomycin was added and treated with or without the 17 limonoids at a concentration of 20 µM for 1 h, followed by LPS addition at a concentration of 10 ng/mL for the LPS-stimulated group. After incubation at 37 °C for 18 h, the supernatants were collected and PNPP in PBS solution (0.8 mM, 100 μL) was added, followed by 4 h of shading at 25 °C. The optical density (OD) of the samples was measured at 405 nm using a microplate reader (BioTek Cytation 5 Cell Imaging Multimode Reader, Agilent Technologies, Santa Clara, CA, USA).

[3] = Cell viability by CCK-8, THP-1 cells; assay type: cell-based; details: human, PMA-differentiated THP-1 cells, 10 µM, 18 h
Procedure: (§2) The viability of HEK-Blue^TM hTLR4, […], and THP-1 cells was evaluated using the Dojindo Cell Counting Kit-8 (CCK-8) according to the manufacturer’s instructions. The viability of HEK-Blue^TM hTLR4 and THP-1 cells was assessed under identical conditions to the corresponding assay treatments. HEK-Blue^TM hTLR4 cells (2 × 10^4 cells/well) were seeded in 96-well plates and serum-starved for 24 h at 37 °C in a 5% CO2 atmosphere. After incubation, the culture medium was aspirated, and the cells were washed with saline. High-glucose D-MEM supplemented with 0.1% FBS and 1% penicillin–streptomycin was added and pretreated with or without the 17 limonoids at a concentration of 20 µM for 1 h, followed by LPS addition at a concentration of 10 ng/mL. After 18 h of incubation, a 10% (v/v) CCK-8 solution was added to each well and incubated at 37 °C for 1 h, and cell viability was calculated.
The THP-1 cells at 5 × 10^4 cells/well were differentiated for 24 h in the presence of PMA (0.5 μM solution in medium). After 24 h of incubation, the culture medium was removed from the 96-well plate and the cells were washed with PBS. Fresh RPMI-1640 medium supplemented with 0.1% FBS and 1% penicillin–streptomycin was added to each well and incubated at 37 °C for overnight. The cells were pretreated with 17 limonoids at the corresponding concentration for 1 h followed by the addition of LPS (10 ng/mL) and incubated at 37 °C for 18 h. Furthermore, CCK-8 solution was added to each well with a final concentration was 10% (v/v) and incubated at 37 °C. After 1 h, the absorbance of each well was measured at […] by using a microplate reader (BioTek Cytation 5 Cell Imaging Multimode Reader). Cell viability was calculated using the following formula: % Cell viability=(Absorbance of sample−Absorbance of Background)/(Absorbance of control−Absorbance of Background)×100 where the absorbance of the sample is the absorbance of cells treated by the compound with or without LPS, the absorbance of the control is the absorbance of LPS (−)-treated cells, and the background absorbance is the absorbance of a well containing only the medium. The results were expressed as 100% cell viability.

[4] = Cell viability by CCK-8, HEK-Blue hTLR4 cells; assay type: cell-based; details: human
Procedure: as §2

[5] = tested on: TLR4-dependent NF-kB activation in HEK-Blue hTLR4 cells; experiment: SEAP reporter gene assay, antagonist effect on LPS-stimulated TLR4-dependent NF-κB activation; assay type: cell-based, human; details: 20 µM, LPS 10 ng/mL, 18 h, vs. LPS stimulated-only group
Procedure: as §1

in vitro = assay type: cell-based; details: mouse
Procedure: as §2

Compound: CC1(C)C(=O)C=CC2(C)C1=C(O)C(=O)C1(C)C2(O)C(O)CC2(C)C(c3ccoc3)CC3OC321 (stereo not shown) [Compound 17, pentandricine G]
- IC50 [1]: < 20 µM
- Agonist effect on NF-κB activation [2]: weak agonist effect
- viability at 18 h, 10 µM ([3]; LPS 10 ng/mL, read-out: Viability Cell (%) THP-1 LPS-Induced (10 ng/mL)): > 99.9%
- viability at 18 h, 10 µM ([3]; without LPS, read-out: Viability Cell (%) THP-1 Without LPS): 87.3 ± 4.18%
- viability at 18 h, 20 µM ([4]; Viability Cell (%) HEK-Blue hTLR4 LPS-Induced (10 ng/mL)): 64.2 ± 9.05%
- viability at 18 h, 20 µM ([4]; Viability Cell (%) HEK-Blue hTLR4 Without LPS): > 99.9%
- Inhibition of SEAP release (NF-κB activity inhibition) [5]: significantly inhibited SEAP release
- viability at 5 µM (in vitro): 77.5 ± 10.2%
- viability at 10 µM (in vitro): 72.2 ± 4.68%
- viability at 20 µM (in vitro): 73.1 ± 2.02%
